Reference: ChEMBL document CHEMBL1201862, “PubChem BioAssay data set” (2004)
Calls of active or inactive are those of the source.

Key:
Genome polyprotein = Genome polyprotein (dengue virus type 2, UniProt P29990); experiment: Dengue-2 NS5 methyltransferase inhibitors, primary screen, biochemical, confirmation dose response (AID 588689); assay type: functional
[1] = target: T1, Lysine-specific demethylase 4C (Homo sapiens, UniProt Q9H3R0); experiment: GASC-1 (JMJD2C) histone demethylase inhibitors, dose response, biochemical, DELFIA europium, cherry-picked samples (AID 488835); assay type: functional
T1 sequence (Q9H3R0 whole entry): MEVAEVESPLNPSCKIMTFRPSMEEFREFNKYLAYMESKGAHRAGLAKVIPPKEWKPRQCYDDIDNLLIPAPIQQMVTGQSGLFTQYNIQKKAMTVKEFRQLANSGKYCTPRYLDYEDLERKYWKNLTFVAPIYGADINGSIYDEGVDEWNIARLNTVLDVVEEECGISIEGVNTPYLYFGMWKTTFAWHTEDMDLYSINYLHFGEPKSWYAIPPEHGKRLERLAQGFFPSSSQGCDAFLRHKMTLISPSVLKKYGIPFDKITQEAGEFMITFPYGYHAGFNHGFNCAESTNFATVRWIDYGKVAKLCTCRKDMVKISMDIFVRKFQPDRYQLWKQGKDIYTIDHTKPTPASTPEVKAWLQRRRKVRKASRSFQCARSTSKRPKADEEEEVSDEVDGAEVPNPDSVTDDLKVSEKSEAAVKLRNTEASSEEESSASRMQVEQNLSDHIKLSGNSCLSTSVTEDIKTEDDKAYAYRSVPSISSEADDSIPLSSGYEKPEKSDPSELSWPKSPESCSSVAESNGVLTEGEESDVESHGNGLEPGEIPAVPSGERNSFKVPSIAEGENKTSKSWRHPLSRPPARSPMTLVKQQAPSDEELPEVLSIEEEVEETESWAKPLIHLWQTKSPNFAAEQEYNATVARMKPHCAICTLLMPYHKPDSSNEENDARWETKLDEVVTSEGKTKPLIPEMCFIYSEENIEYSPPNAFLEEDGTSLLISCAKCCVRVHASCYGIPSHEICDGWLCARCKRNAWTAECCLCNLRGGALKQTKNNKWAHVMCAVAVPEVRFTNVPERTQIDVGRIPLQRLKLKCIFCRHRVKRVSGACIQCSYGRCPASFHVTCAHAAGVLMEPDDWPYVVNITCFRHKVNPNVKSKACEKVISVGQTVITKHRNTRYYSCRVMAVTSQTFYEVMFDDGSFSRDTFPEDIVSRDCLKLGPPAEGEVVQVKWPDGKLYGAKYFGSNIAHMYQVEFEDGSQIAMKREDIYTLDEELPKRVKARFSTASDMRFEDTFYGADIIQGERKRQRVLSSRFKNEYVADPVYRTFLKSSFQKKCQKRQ

Protein RecA = target: T2, Protein RecA (Mycobacterium tuberculosis, UniProt P9WHJ3); experiment: Fluorescence Cell-Free Homogeneous Dose Retest to Identify Inhibitors of RecA-Intein Splicing Activity. [Related pubchem assays (depositor defined):AID2097, AID2223, AID489010, AID492950]; assay type: functional
T2 sequence (P9WHJ3 whole entry): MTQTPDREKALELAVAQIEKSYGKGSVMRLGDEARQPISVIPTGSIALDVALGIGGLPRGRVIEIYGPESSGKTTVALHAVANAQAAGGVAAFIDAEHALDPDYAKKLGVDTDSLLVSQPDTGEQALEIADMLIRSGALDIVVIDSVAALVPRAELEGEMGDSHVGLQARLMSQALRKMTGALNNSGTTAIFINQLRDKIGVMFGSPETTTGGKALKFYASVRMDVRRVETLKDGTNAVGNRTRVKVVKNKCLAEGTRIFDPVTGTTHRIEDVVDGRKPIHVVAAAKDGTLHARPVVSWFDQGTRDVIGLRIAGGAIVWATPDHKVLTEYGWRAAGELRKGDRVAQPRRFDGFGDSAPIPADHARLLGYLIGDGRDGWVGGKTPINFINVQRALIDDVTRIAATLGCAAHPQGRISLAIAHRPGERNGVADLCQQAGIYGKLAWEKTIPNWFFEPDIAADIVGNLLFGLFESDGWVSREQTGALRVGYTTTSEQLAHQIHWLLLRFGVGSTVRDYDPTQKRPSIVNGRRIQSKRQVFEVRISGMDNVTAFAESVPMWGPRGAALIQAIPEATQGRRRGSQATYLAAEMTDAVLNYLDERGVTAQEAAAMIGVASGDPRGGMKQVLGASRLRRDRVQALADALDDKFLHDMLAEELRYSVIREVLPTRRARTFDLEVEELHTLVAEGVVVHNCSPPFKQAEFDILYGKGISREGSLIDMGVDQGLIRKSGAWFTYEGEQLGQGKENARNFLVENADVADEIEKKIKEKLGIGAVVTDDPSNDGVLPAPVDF

[2] = target: T3, Replicative DNA helicase DnaB (Mycobacterium tuberculosis, UniProt P9WMR3); experiment: DnaB intein splicing inhibitors, dose response, biochemical, cell-free fluorescence (AID 449749); assay type: functional
T3 sequence (P9WMR3 whole entry): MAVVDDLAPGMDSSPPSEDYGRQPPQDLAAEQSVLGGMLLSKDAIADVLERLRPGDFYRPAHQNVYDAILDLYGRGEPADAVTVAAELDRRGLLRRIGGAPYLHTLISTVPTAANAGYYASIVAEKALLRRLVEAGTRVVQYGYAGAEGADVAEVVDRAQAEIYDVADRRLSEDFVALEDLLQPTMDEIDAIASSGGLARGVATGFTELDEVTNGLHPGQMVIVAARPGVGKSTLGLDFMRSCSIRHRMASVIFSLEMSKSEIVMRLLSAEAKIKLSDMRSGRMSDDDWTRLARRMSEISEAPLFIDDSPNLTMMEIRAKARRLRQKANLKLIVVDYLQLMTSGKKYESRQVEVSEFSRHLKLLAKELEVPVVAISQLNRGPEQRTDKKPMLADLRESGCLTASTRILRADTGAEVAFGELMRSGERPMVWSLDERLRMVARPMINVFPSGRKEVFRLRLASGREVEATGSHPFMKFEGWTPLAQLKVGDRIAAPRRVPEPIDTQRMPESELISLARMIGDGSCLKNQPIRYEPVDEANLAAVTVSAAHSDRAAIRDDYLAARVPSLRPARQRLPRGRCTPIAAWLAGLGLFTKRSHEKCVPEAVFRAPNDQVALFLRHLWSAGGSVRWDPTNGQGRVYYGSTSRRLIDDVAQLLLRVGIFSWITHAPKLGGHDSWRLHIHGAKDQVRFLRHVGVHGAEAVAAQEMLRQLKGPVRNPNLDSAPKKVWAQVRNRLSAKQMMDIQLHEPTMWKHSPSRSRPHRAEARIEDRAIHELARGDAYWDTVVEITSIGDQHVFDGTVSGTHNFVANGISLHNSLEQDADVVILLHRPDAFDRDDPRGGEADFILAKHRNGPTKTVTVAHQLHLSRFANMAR

[3] = cytotoxicity in MIN6 insulinoma cells, dose response, cytotoxicity control, cell-based, mouse insulinoma (AID 2122); assay type: functional;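 note: confirmatory high-throughput counterscreen run to flag cytotoxic compounds; mouse MIN-6 beta cells carrying an insulin promoter eGFP reporter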
[4] = growth suppression of beta-catenin-knockout colon cells, dose response, cell-based, HCT116, human colon tumor (AID 1045); assay type: functional;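 note: HCT116 colon tumor cells with beta catenin knocked out; cells exposed to compound for 60 hours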
[5] = insulin promoter down-regulators in MIN6 cells, imaging, high-content screening, mouse beta cells (AID 1628); assay type: functional
[6] = growth suppression of PTEN-null colon cells, dose response, cell-based, HCT116 PTEN knockout (AID 1047); assay type: functional;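 note: HCT116 colon tumor cells with PTEN knocked out; cells exposed to compound for 60 hours before readout; potency for loss of cell viability measured by luminescence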
[7] = cytotoxicity in HPDE-C7 cells, cell-based, fluorescence, HTS (AID 430); assay type: functional; conditions: Homo sapiens
[8] = cytotoxicity toward NIH3T3 fibroblasts, dose response, counter-screen, cell-based, ATP luminescence, mouse fibroblasts (AID 2010); assay type: functional;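 note: cells exposed to compound for about 90 hours before reading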
[9] = cytotoxicity in KRAS-transformed pancreatic duct cells, primary screen, cell-based, fluorescence, HTS (AID 431); assay type: functional; conditions: Homo sapiens;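 note: cell line used: HPDE-C7K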
[10] = inhibitors of intracellular T. cruzi replication, confirmation, NIH3T3 host cells, beta-gal luminescence (AID 2044); assay type: functional, cell-based;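 note: intracellular parasites grown in NIH/3T3 mouse fibroblasts as host cells; luminescent beta-galactosidase reporter signal from transgenic T. cruzi replicating inside host cells; inhibitors lower the luminescence signal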
[11] = target: T4, High affinity choline transporter 1 (Homo sapiens, UniProt Q9GZV3); experiment: CHT inhibitors, dose response, cell-based, 5-point CRC, membrane potential dye (AID 504840); assay type: functional
T4 sequence (Q9GZV3 whole entry): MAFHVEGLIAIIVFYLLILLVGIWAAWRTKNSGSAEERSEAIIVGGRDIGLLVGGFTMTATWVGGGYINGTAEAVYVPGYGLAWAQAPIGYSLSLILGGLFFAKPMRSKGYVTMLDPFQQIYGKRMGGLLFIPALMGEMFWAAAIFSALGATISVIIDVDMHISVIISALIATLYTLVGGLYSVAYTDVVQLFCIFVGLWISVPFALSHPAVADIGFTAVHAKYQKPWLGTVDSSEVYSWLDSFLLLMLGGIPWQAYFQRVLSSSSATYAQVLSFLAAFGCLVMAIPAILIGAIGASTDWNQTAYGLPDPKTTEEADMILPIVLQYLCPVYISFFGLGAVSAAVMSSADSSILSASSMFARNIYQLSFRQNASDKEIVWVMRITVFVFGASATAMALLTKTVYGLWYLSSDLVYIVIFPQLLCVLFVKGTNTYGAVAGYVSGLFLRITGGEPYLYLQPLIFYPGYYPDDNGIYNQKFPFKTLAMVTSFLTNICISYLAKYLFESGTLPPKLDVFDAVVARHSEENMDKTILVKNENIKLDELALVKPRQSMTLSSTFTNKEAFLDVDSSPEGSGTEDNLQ

[12] = target: T4, High affinity choline transporter 1; experiment: CHT inhibitors, dose response, cell-based, 10-point CRC, membrane potential dye (AID 588401); assay type: functional;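 note: membrane potential dye fluorescence of choline-evoked depolarization via CHT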
[13] = target: T5, Heat shock factor protein 1 (Mus musculus, UniProt P38532); experiment: HSF1 potentiators in luciferase reporter cells, confirmation, cell-based, NIH3T3, luminescence, dose retest (AID 435004); assay type: functional;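 note: stress induced by proteasome inhibitor MG132 added 30 min after compound; luciferase reporter driven by HSF1 response element in NIH3T3 cells; actives raise luminescence as potentiators of the MG132 stress response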
T5 sequence (P38532 whole entry): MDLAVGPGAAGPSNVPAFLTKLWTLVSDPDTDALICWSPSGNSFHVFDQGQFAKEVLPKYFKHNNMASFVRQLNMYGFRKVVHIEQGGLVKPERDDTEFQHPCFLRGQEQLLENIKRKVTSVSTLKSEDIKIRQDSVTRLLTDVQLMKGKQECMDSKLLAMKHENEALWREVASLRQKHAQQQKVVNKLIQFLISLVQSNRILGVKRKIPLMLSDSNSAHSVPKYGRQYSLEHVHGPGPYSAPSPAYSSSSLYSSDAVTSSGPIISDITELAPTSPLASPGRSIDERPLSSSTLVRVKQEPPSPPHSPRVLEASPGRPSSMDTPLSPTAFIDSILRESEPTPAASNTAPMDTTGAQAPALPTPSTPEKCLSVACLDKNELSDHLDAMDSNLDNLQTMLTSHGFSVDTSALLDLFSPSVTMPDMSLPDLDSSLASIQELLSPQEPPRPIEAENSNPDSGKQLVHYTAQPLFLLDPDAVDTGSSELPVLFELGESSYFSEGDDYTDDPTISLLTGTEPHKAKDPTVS

Vero [14] = experiment: cells; assay type: functional, cell-based; conditions: Chlorocebus sabaeus
Vero [15] = experiment: cells; assay type: functional; conditions: Chlorocebus sabaeus
[16] = HepG2 cell cytotoxicity, dose response, cytotoxicity control for non-replicating M. tuberculosis project (AID 489018); assay type: functional; conditions: Mycobacterium tuberculosis
[17] = Vero E6 cell cytotoxicity, dose response, cytotoxicity control for non-replicating M. tuberculosis project, secondary assay (AID 492998); assay type: functional, VeroE6; conditions: Vero C1008
cells = assay type: functional
[18] = THP-1 cell cytotoxicity, dose response, cytotoxicity control for non-replicating M. tuberculosis project (AID 489025); assay type: functional
Cytochrome P450 2C9 [19] = target: T6, Cytochrome P450 2C9 (Homo sapiens, UniProt P11712)
T6 sequence (P11712 whole entry): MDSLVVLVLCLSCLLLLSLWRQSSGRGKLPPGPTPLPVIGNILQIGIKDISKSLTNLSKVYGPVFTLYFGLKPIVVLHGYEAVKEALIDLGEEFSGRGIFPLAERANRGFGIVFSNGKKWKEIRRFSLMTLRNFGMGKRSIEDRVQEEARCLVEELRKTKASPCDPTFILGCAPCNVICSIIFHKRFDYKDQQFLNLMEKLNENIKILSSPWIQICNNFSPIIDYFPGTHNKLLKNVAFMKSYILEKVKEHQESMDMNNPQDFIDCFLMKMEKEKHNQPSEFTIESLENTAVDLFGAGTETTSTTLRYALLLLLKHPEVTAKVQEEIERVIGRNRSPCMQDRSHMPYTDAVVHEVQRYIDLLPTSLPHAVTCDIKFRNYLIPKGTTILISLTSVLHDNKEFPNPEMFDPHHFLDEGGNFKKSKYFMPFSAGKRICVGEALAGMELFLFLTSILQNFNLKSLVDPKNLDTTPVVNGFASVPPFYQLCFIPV

[20] = target: Eukaryotic translation initiation factor 4E (Mus musculus, UniProt P63073); experiment: eIF4E–eIF4G protein interaction inhibitors, dose response, biochemical, TR-FRET (AID 855); assay type: functional;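 note: potency for disrupting eIF4E binding to eIF4GI seen as loss of FRET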
Eukaryotic translation initiation factor 4E, sequence (P63073 whole entry): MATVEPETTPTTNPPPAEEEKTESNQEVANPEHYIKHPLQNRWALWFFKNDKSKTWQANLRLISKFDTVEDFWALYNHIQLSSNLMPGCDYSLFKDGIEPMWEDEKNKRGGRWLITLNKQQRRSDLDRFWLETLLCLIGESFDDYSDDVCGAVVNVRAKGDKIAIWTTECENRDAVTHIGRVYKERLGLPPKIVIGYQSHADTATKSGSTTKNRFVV

Cytochrome P450 2C9 [21] = target: T6, Cytochrome P450 2C9; remark: listed apart in the source

Genome polyprotein, sequence (P29990 2492-3391 limits assumed): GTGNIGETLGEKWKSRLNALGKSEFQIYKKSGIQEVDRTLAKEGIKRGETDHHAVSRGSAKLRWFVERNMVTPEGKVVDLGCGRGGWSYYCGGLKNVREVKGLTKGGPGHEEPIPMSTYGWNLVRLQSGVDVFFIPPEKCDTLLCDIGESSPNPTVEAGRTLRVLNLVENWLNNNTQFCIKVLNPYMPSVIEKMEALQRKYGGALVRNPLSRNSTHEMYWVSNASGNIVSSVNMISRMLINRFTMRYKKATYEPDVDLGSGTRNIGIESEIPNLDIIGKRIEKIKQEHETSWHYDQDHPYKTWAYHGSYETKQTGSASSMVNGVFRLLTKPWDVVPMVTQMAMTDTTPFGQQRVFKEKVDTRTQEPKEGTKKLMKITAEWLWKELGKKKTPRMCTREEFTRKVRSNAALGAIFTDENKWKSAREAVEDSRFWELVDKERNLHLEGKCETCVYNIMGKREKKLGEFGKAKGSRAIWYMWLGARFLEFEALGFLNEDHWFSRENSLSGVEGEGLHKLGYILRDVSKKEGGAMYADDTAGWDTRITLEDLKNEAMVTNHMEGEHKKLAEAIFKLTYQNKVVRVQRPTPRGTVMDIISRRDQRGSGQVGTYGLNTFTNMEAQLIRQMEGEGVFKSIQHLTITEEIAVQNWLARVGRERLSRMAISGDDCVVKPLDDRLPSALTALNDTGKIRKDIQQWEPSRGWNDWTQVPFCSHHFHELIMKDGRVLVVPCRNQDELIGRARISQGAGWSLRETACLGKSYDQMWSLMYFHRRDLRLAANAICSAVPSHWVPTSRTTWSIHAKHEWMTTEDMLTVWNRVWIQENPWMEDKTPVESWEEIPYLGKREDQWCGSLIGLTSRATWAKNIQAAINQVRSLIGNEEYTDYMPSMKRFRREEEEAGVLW

## CC1=NN(c2ccc(C)cc2C)C(=O)C1C(c1ccccc1)C1C(=O)N(c2ccc(C)cc2C)N=C1C (centres undefined)
Genome polyprotein
  IC50: 48.8 µM (active)
[1]
  AC50: 16.3 µM (active)
Protein RecA
  EC50: 0.431 µM (active)
[2]
  AC50: 0.523 µM (active)

## N=c1c2c(-c3ccccc3)c(-c3ccccc3)n(Cc3ccco3)c2ncn1Cc1ccco1
[3]
  IC50: 2.49 µM (active)
[4]
  EC50: 0.891 µM (active)
[5]
  IC50: 1.72 µM (active)
[6]
  EC50: 1.16 µM (active)
[7]
  EC50: 7.73 µM (active)
[8]
  EC50: 13.5 µM (active)
[9]
  EC50: 11.9 µM (active)
Protein RecA
  EC50: 8.76 µM (active)
[10]
  EC50: 0.68 µM (active)
[2]
  AC50: 6.15 µM (active)

## CCC(NC(C)c1ccccc1)=C1C(=O)N(C)C(=O)N(C)C1=O (centres undefined)
[3]
  IC50: 2.81 µM (active)
[4]
  EC50: 50 µM (active)
[5]
  IC50: 2.84 µM (active)
[6]
  EC50: 47.9 µM (active)
[11]
  IC50: 9.12 µM (active)
[12]
  IC50: 8.43 µM (active)
[13]
  EC50: > 260 µM (inactive)

## CCOc1ccc(/C=C/c2nc(C#N)c(NCCCN(C)C)o2)cc1
Vero [14]
  IC50: 21.1 µM (active)
Vero [15]
  CC50: > 25 µM (active)

## Cn1c(/N=C/c2cc(Cl)ccc2O)nc2ccccc21
[1]
  AC50: 10.4 µM (active)

## CCOc1cc(CNCCO)cc(Br)c1OCc1ccccc1Cl
[16]
  CC50: 14.1 µM (active)
[3]
  IC50: 1.56 µM (active)
[4]
  EC50: 9.13 µM (active)
[5]
  IC50: 1.43 µM (active)
[6]
  EC50: 9.8 µM (active)
Vero [15]
  CC50: 13.8 µM (active)
[17]
  CC50: 19.7 µM (active)
cells
  IC50: 18.4 µM (active)
[18]
  CC50: 11.5 µM (active)
Cytochrome P450 2C9 [19]
  AC50: 28.2 µM (inconclusive)

## COc1ccccc1/C=C/C(=O)c1c(O)nc(C)c2c1CCCC2
Vero [14]
  IC50: 20.3 µM (active)
Vero [15]
  CC50: > 25 µM (active)
[20]
  IC50: 50 µM (inactive)
Cytochrome P450 2C9 [21]
  AC50: inconclusive

## Nc1c(Cl)ncnc1NCc1cccnc1
[1]
  AC50: 5.63 µM (active)
